Read-outs that look alike come from different tables or passages of the source.
Key:
(h)DAT [1] = molecular target: T1, (h)DAT (Homo sapiens, UniProt Q01959); assay: block of [3H]dopamine reuptake in HEK-(h)DAT cells; type: cell-based; conditions: for times more potent than bupropion as DA uptake inhibitor: relative to bupropion
T1 construct: expressed in transfected cells

(h)SERT [2] = molecular target: T2, (h)SERT (Homo sapiens, UniProt P31645); conditions: read-out: Binding, Ki SERT
T2 construct: expressed in transfected cells; host or cells: HEK293

(h)DAT [3] = molecular target: T1, (h)DAT; assay: competition binding with [125I]RTI-55 at (h)DAT stably expressed in HEK293 cells; conditions: mean ± standard error of three independent experiments
(h)NET [4] = molecular target: T3, (h)NET (Homo sapiens, UniProt P23975); assay: block of [3H]norepinephrine reuptake in HEK-(h)NET cells
(h)NET [5] = molecular target: T3, (h)NET; assay: competition binding with [125I]RTI-55 at (h)NET stably expressed in HEK293 cells; conditions: read-out: Binding, Ki NET; mean ± standard error of three independent experiments
(h)SERT [6] = molecular target: T2, (h)SERT; assay: block of [3H]serotonin reuptake in HEK-(h)SERT cells; type: cell-based
mice [7] = assay: locomotor activity, 1-h observation protocol; type: in vivo; conditions: for Locomotor Activity 1-Hour ED50 / ED50: dose to produce 50% of the compound's maximal effect, 1-h; for Emax / ED50: Mus musculus; for Emax: 0.5 h, read-out: Locomotor Activity 1-Hour % Peak Cocaine
mice [8] = assay: locomotor activity, 8-h time course protocol; type: in vivo; conditions: for Emax / ED50: Mus musculus; for Emax: read-out: Locomotor Activity 8-Hour % Peak Cocaine, percent of cocaine's maximal effect, 30 min period of maximum stimulation; for ED50: read-out: Locomotor Activity 8-Hour ED50; for Locomotor Activity 8-Hour Time, min Period, length: duration of locomotor activity; for Locomotor Activity 8-Hour Time, min Period, max: time period of maximum effect; for locomotor stimulant activity across the 1-h and 8-h protocols, in words: 1-h and 8-h tests compared
rats [9] = assay: cocaine discrimination (2-lever operant), i.p. administration; conditions: Rattus norvegicus, ip
rats [10] = assay: cocaine discrimination time-course study, oral administration; conditions: Rattus norvegicus, po, 0.75 h
[11] = [3H]DA, read-out: IC50 for DA uptake inhibition
[12] = mean ± standard error of three independent experiments
[13] = read-out: IC50 for NE uptake inhibition, [3H]NE
[14] = read-out: Uptake, IC50 [3H]NE, mean ± standard error of three independent experiments
[15] = [3H]5HT, read-out: IC50 for 5HT uptake inhibition
[16] = dose to produce 50% of the compound's maximal effect, 8-h
[17] = read-out: % cocaine lever responding

T1 sequence (Q01959 whole entry): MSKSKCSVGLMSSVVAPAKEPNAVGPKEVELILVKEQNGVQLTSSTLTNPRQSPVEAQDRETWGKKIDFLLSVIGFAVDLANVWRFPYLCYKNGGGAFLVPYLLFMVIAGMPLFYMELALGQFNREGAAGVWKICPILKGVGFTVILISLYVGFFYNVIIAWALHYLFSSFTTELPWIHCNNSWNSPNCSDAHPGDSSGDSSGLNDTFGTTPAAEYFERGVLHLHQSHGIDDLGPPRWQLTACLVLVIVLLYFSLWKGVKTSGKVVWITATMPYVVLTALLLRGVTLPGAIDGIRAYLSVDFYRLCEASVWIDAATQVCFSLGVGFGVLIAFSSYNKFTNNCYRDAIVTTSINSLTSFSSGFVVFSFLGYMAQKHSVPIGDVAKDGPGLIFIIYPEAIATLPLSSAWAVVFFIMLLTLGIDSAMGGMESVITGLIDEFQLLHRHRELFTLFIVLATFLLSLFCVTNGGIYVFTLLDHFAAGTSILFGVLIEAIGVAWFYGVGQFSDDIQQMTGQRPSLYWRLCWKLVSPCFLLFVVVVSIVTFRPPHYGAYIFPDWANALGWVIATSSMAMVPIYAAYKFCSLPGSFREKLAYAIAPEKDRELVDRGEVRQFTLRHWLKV
T2 sequence (P31645 whole entry): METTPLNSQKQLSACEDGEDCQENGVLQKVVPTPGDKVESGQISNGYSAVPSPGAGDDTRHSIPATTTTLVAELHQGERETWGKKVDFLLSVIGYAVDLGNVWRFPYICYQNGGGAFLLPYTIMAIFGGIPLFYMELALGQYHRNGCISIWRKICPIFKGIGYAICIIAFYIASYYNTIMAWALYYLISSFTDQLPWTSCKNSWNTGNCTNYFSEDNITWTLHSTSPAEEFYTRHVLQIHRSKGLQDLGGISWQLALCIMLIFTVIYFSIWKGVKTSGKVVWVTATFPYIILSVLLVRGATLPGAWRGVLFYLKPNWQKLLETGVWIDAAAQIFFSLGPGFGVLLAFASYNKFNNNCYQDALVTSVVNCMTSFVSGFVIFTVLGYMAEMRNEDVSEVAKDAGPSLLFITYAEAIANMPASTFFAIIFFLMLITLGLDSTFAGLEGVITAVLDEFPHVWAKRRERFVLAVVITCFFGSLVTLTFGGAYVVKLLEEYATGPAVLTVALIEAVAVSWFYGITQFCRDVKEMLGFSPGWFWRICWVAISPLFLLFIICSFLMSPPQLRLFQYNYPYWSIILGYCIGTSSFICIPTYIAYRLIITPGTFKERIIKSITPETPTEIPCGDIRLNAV
T3 sequence (P23975 whole entry): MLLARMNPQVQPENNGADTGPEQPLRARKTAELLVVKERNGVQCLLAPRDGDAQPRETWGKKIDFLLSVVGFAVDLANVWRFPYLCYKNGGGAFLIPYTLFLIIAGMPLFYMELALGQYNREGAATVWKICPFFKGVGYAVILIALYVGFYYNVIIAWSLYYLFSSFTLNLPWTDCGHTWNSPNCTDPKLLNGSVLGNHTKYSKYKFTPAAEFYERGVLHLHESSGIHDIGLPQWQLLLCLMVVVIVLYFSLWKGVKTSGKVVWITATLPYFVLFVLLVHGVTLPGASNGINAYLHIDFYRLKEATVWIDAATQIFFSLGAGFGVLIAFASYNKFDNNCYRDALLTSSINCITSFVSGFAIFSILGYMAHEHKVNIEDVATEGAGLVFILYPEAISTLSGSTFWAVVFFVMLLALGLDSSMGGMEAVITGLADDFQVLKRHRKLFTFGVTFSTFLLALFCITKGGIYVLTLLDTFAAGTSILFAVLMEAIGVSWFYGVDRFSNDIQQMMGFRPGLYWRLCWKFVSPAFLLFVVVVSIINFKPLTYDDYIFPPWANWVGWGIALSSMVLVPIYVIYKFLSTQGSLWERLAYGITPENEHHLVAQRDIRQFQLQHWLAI

SMILES | IC50 ((h)DAT [1]; [11]) [nM] | times more potent than bupropion as DA uptake inhibitor ((h)DAT [1]) [times] | Ki ((h)SERT [2]; [12]) [nM] | Ki ((h)DAT [3]) [nM] | IC50 ((h)NET [4]; [13]) [nM] | IC50 ((h)NET [4]; [14]) [nM] | Ki ((h)NET [5]) [nM] | IC50 ((h)SERT [6]; [15]) [nM] | Locomotor Activity 1-Hour ED50 (mice [7]) | 5HT uptake inhibition, in words ((h)SERT [6]) | responders at 10 mg/kg (rats [9]; [17]) [%] | responders at 25 mg/kg (rats [9]; [17]) [%] | responders at 50 mg/kg (rats [9]; [17]) [%] | responders at 100 mg/kg (rats [9]; [17]) [%] | Ki ((h)SERT [2]) [nM] | Emax (mice [8]) [%] | ED50 (mice [8]; [16]) [mg/kg] | Locomotor Activity 8-Hour Time, min Period, length (mice [8]) [min] | Locomotor Activity 8-Hour Time, min Period, max (mice [8]) [min] | locomotor stimulant activity across the 1-h and 8-h protocols, in words (mice [8]) | further results
CC(NC1CCC1)C(=O)c1cccc(Cl)c1 (centres unmarked) [Compound 2y, 2-(N-Cyclobutylamino)-3′-chloropropiophenone] | 258 | 3.7 | 3450 | 343 | 86 | 86 | 1800 | 185 |  |  |  |  |  |  |  |  |  |  |  |  | times better as NE uptake inhibitors than bupropion ((h)NET [4]; relative to bupropion): 17 times
CCCNC(C)C(=O)c1cccc(Cl)c1 (centres unmarked) [Compound 2v, 2-(N-Propylamino)-3′-chloropropiophenone] |  |  |  |  |  |  |  |  | NE^f | inactive |  |  |  |  |  |  |  |  |  |  | DA uptake inhibition, in words ((h)DAT [1]): inactive; Locomotor Activity 8-Hour ED50 (mice [8]; [16]): NE^f; NE uptake inhibition, in words ((h)NET [4]): inactive
Cc1cc(C(=O)C(C)NC(C)(C)C)ccc1Br (centres unmarked) [Compound 2l, 2-(N-tert-Butylamino)-4′-bromo-5′-methylpropiophenone] |  |  |  |  |  | 1620 | 4600 |  | NE^f |  | 0 | 0 | 17 | 67 | 1220 | 46 | 12.8 | 240 | 50 to 80 |  | IC50 ((h)SERT [6]; read-out: IC50 for 5HT uptake inhibition): 473 nM
Cc1ccc(C(=O)C(C)NC(C)(C)C)cc1Cl (centres unmarked) [Compound 2k, 2-(N-tert-Butylamino)-3′-chloro-4′-methylpropiophenone] | 650 | 2 | 2100 | 1150 |  | 900 | 5100 | 400 |  |  |  |  |  |  |  | 87 |  | 60 | 10 to 40 | moderate activity in the 1-h test with increased activity in the time-course study | Emax (mice [7]): 74%; ED50 (mice [7]): 31.9 mg/kg; ED50 (mice [8]; 8 h): 60.8 mg/kg
CC(NC1CCCC1)C(=O)c1cccc(Cl)c1 (centres unmarked) [Compound 2z, 2-(N-Cyclopentylamino)-3′-chloropropiophenone] | 980 |  |  | 2200 | 221 |  | 5700 |  |  | totally inactive | 0 | 66 | 83 |  |  | 110 |  | 330 to 340 | 0 to 30 | strong stimulants in both studies | responders at 5 mg/kg (rats [9]; [17]): 2%; ED50 (rats [9]; read-out: Full Generalization ED50): 10.8 mg/kg; Emax (mice [7]): 110%; ED50 (mice [7]): 10.6 mg/kg; ED50 (mice [8]; 8 h): 10.6 mg/kg; onset and duration of locomotor activity, in words (mice [8]; mouse, in vivo): long durations of action; ED50 (rats [10]): 8.28 mg/kg
CC(NC(C)(C)C)C(=O)c1ccc(Br)cc1 (centres unmarked) [Compound 2g, 2-(N-tert-Butylamino)-4′-bromopropiophenone] |  |  |  | 1920 |  |  |  |  | NE^f |  | 1 | 17 | 17 | 0 | 4170 | 54 | 32 | 160 | 140 to 170 | inactive in the 1-h test but showed weak stimulant activity in the 8-h protocol | IC50 ((h)DAT [1]; mean ± standard error of three independent experiments, read-out: Uptake, IC50 [3H]DA): 1300 nM; IC50 ((h)SERT [6]; read-out: Uptake, IC50 [3H]5-HT): 2520 nM

Reference: patent US10919841B2, “Monoamine reuptake inhibitors” (Research Triangle Institute, priority 2009, dated 2021)
